Data on 25 compounds can be found in patent US6294580A, “Substituted 4-hydroxy-phenylalcanoic acid derivatives with agonist activity to PPAR-gamma” (Glaxo Wellcome Inc., priority 1996, dated 2001).

For orientation: Ki means a dissociation constant, usually derived from enzyme kinetics or from competition with a known ligand. A word on the EC50: it is the midpoint of the concentration-response curve.

One series has as its target T1, hPPARgamma (Homo sapiens, UniProt P37231).
T1 construct: 10x-histidine tag (N); made in house; host or cells: E. coli
T1 sequence (P37231 195-475 isoform P37231-2): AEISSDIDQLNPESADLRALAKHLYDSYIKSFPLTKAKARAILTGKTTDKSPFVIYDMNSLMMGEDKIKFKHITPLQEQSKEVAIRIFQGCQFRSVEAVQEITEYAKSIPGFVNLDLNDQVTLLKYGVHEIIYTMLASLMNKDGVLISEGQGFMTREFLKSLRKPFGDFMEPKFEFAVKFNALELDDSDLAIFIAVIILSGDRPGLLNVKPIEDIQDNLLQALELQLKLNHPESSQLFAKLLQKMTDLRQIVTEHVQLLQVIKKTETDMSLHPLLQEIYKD
Put plainly: hPPARgamma Ligand Binding Assay. The following applies: competition with [3H]-BRL 49,653, room temperature 2 hrs.

A further series concerns PPARg. Put plainly: PPARgamma Transient Cotransfection Assay. In kind it is cell-based.
Where [1] appears, read: CAT reporter, read-out: PPARg EC50.
[2] abbreviates: read-out: PPARg EC50, CAT reporter.

Counter-ions that a name gives are not always drawn. Like-named read-outs stand apart in the source and are kept apart here.

Protocol for hPPARgamma: 2. hPPARgamma Ligand Binding Assay: The PPAR-gamma ligand binding domain (amino acids 195-475) was expressed with an N-terminal 10×-histidinetag in E. coli cells. The cells were lysed and receptor was purified by means of the epitope tag. The stock solution of protein was diluted to 200 nM in assay buffer (50 mM Tris, 50 mM KCl, pH 8 20 mM CHAPS, 2 mM EDTA 10 mM DTT (Fresh)) just before use.
Test compounds were prepared as 6 mM stock solutions in DMSO. […] The right-most column of wells was used for controls. […] Plates were incubated at room temperature for 2 hrs, and then cooled on ice for 30 minutes. 50 uL samples from each well of a single test plate were simultaneously loaded onto an equilibrated AGTC 96 well gel filtration block (Advanced Genetics Technology Corp.) using a Zymak Rapidplate automated pipettor. The block was placed on top of a clean microtiter plate and centrifuged @1,100×g for 4 min. 200 uL of scintillation fluid was added to each well, the plates were sealed and allowed to equilibrate for at least 4 hours before counting in a Wallac 1250 Microbeta counter.
Ki's were determined from a nonlinear least squares fit of the data to a simple competitive binding model.

For `CN(CCOc1ccc(CC(Nc2ccccc2C(=O)c2ccccc2C(F)(F)F)C(=O)O)cc1)c1nc2ccccc2o1` (stereo not shown) [Example 77], the affinity at hPPARgamma (PPARg Ki) corresponds to a Ki of 155 nM. In addition, the EC50 with PPARg (setting [1]) was 65 nM. On to `CN(CCOc1ccc(CC(Nc2ccccc2C(=O)c2ccc(C(F)(F)F)cc2)C(=O)O)cc1)c1nc2ccccc2o1` (stereo not shown) [Example 73], for which, on hPPARgamma (PPARg Ki), the Ki is 115 nM. Besides, the EC50 in the series with PPARg (setting [1]) was found to be 25 nM. With `CN(CCOc1ccc(CC(Nc2ccccc2C(=O)c2cccc(C(F)(F)F)c2)C(=O)O)cc1)c1nc2ccccc2o1` (stereo not shown) [Example 76], the Ki at hPPARgamma (PPARg Ki) was determined as 110 nM. In the series on PPARg (setting [1]), the EC50 was 10 nM. On hPPARgamma (PPARg Ki), `Cc1oc(-c2ccccc2)nc1CCOc1ccc(C[C@H](Nc2ccccc2C(=O)c2ccc[n+]([O-])c2)C(=O)O)cc1` [Example 59, 3-{4-[2-(5-methyl-2-phenyl-oxazol-4-yl)-ethoxy]-phenyl}-2(S)-[2-(pyridine-N-oxide-3-carbonyl)-phenylamino]-propionic acid] had a Ki of 100 nM. Besides, the EC50 in the series on PPARg (setting [1]) turned out to be 95 nM. In the case of `Cc1cccc(C(=O)c2ccccc2NC(Cc2ccc(OCCN(C)c3nc4ccccc4o3)cc2)C(=O)O)c1` (stereo not shown) [Example 80], the inhibitory constant (Ki) on hPPARgamma (PPARg Ki) worked out at 10 nM. For the same compound, the EC50 in the series with PPARg (setting [1]) worked out at 10 nM.

`CN(CCOc1ccc(CC(Nc2c(C(=O)C3CCCCC3)cnn2C)C(=O)O)cc1)c1nc2ccccc2o1` (stereo not shown) [Example 51, 3-{4-[2-(Benzoxazol-2-yl-methyl-amino)-ethoxy]-phenyl}-2-(4-cyclohexanecarbonyl-2-methyl-2H-pyrazol-3-ylamino)-propionic acid] yielded a Ki on hPPARgamma (PPARg Ki) of 140 nM. Also, the EC50 in the series with PPARg (setting [1]) is 350 nM. Turning to `Cc1oc(-c2ccccc2)nc1CCOc1ccc(CC(Nc2ccccc2C(=O)c2ccc(CN(C)C)cc2)C(=O)O)cc1` (stereo not shown) [Example 81, 2-[2-(4-dimethylaminomethyl-benzoyl)-phenylamino]-3-{4-[2-(5-methyl-2-phenyl-oxazol-4-yl)-ethoxy]-phenyl}-propionic acid hydrochloride], on hPPARgamma (PPARg Ki), the Ki is 130 nM. Further, the EC50 in the series with PPARg (setting [1]) came to 400 nM.

Take `O=C(c1ccccc1)c1ccccc1NC(Cc1ccc(OC2CCN(c3nc4ccccc4o3)C2)cc1)C(=O)O` (stereo not shown) [Example 21, 3-[4-(1-Benzoxazol-2-yl-pyrrolidin-3-yloxy)-phenyl]-2-(2-benzoyl-phenylamino)-propionic acid]: the Ki on hPPARgamma (PPARg Ki) came to 530 nM. The EC50 in the series on PPARg (setting [1]) is 150 nM. Consider `O=C(c1ccccc1)c1ccccc1NC(Cc1ccc(OC[C@@H]2CCCN2c2nc3ccccc3o2)cc1)C(=O)O` (stereo partly shown) [Example 23], for which, at hPPARgamma (PPARg Ki), the Ki was 50 nM. In the series with PPARg (setting [1]), the EC50 was 1 nM. For the compound `CN(CCOc1ccc(CC(Nc2ccccc2C(=O)c2ccccc2)C(=O)O)cc1)c1ccccn1` (stereo not shown) [Example 11, 2-(2-Benzoyl-phenylamino)-3-{4-[2-(methyl-pyridin-2-yl-amino)-ethoxy]-phenyl}-propionic acid], the 50% effective concentration (EC50) in the series on PPARg (setting [2]) came to 10 nM. For `COC(=O)[C@H](Cc1ccc(OCCc2nc(N3CCN(C)CC3)sc2C)cc1)Nc1ccccc1C(=O)c1ccccc1` [Example 42], in the series with PPARg (setting [1]), the EC50 is 5 nM. In turn, `CN(CCOc1ccc(CC(Nc2ccccc2C(=O)c2ccc(-c3ccccc3)cc2)C(=O)O)cc1)c1nc2ccccc2o1` (stereo not shown) [Example 109, 3-{4-[2-(Benzoxazol-2-yl-methylamino)-ethoxy]-phenyl}-2-(2-(4-biphenylcarbonyl)-phenylamino)-propionic acid] returned a Ki on hPPARgamma (PPARg Ki) of 700 nM. The EC50 in the series on PPARg (setting [1]) was 200 nM.

For the compound `CN(CCOc1ccc(CC(Nc2ccccc2C(=O)c2cccc(O)c2)C(=O)O)cc1)c1nc2ccccc2o1` (stereo not shown) [Example 92, 3-{4-[2-(benzoxazol-2-yl-methyl-amino)-ethoxy]-phenyl}-2-[2-(3-hydroxy-benzoyl)-phenylamino]-propionic acid], on hPPARgamma (PPARg Ki), the Ki turned out to be 20 nM. The half-maximal effective concentration (EC50) in the series with PPARg (setting [1]) turned out to be 400 nM. As to “3-{4-[2-(Benzoxazol-2-yl-methylamino)-ethoxy]-phenyl}-3-(4-benzoyl-thienylamino)-propionic acid [Example 108]”, the Ki on hPPARgamma (read-out: PPARg Ki) turned out to be 80 nM. Moreover, in the series with PPARg (setting [1]), the EC50 came out at 20 nM. Turning to `Cc1oc(-c2ccccc2)nc1CCOc1ccc(C[C@H](Nc2ccccc2C(=O)NCCCN)C(=O)O)cc1` [Example 90, 2-(S)-(1-carboxy-2-{4-{2-(5-methyl-2-phenyl-oxazol-4-yl)-ethoxy]-phenyl}-ethylamino)-benzoic acid 3-aminopropyl amide hydrochloride], the affinity on hPPARgamma (PPARg Ki), expressed as Ki, was 3000 nM. In the case of `Cc1sc(N2CCN(S(C)(=O)=O)CC2)nc1CCOc1ccc(C[C@H](Nc2ccccc2C(=O)c2ccccc2)C(=O)O)cc1` [Example 103, 2(S)-(2-benzoyl-phenylamino)-3-(4-{2-[5-methyl-2-(4-methylsulfonyl-piperazin-1-yl)-thiazol-4-yl]-ethoxy}-phenyl)-propionic acid], the EC50 in the series on PPARg (setting [2]) was determined as 180 nM.

Consider `Cc1oc(-c2ccccc2)nc1CCOc1ccc(CC(Nc2ccccc2C(=O)c2cccc(CO)c2)C(=O)O)cc1` (stereo not shown) [Example 85, 2-[2-(3-hydroxymethyl-benzoyl)-phenylamino]-3-{4-[2-(5-methyl-2-phenyl-oxazol-4-yl)-ethoxy]-phenyl}-propionic acid], for which the EC50 in the series with PPARg (setting [1]) amounted to 20 nM.

As for `COC(=O)C(Cc1ccc(OCc2ccccc2)cc1)Nc1ccccc1C(=O)Nc1ccccc1` (racemic) [Example 6, 3-(4-Benzyloxy-phenyl)-2-(phenylcarbamoyl-phenylamino)-propionic acid methyl ester], the “PPARg Fold. Act.” value with PPARg (CAT reporter) was determined as 4.

For the compound `COC(=O)c1ccccc1N[C@@H](Cc1ccc(OCCc2nc(-c3ccccc3)oc2C)cc1)C(=O)O` [Example 88, 2-(S)-(1-carboxy-2-{4-{2-(5-methyl-2-phenyl-oxazol-4-yl)-ethoxy]-phenyl}-ethylamino)-benzoic acid methyl ester], the EC50 in the series on PPARg (setting [2]) worked out at 0.5 nM. Take `O=C(C1=C(N[C@@H](Cc2ccc(OCc3ccccc3)cc2)C(=O)O)CCCC1)c1ccccc1` [Example 3, 2(S)-(2-Benzoyl-cyclohex-1-enylamino)-3-(4-benzyloxy-phenyl)-propionic acid dicyclohexylamine salt]: the “PPARg Fold. Act.” value in the series with PPARg (CAT reporter) is 3. Turning to `Cc1oc(-c2ccccc2)nc1CCOc1ccc(CC(Nc2ccccc2C(=O)c2cccc(C(=O)O)c2)C(=O)O)cc1` (stereo not shown) [Example 84], in the series on PPARg (setting [1]), the EC50 came out at 55 nM. With `CNC(=O)c1ccccc1N[C@@H](Cc1ccc(OCCc2nc(-c3ccccc3)oc2C)cc1)C(=O)O` [Example 91, 2-(S)-(1-carboxy-2-{4-{2-(5-methyl-2-phenyl-oxazol-4-yl)ethoxy]-phenyl}-ethylamino)-benzoic acid methyl amide], in the series with PPARg (setting [1]), the EC50 turned out to be 20 nM. As for `COC(=O)C(Cc1ccc(OCc2ccccc2)cc1)Nc1ccccc1C(=O)N1CCCCC1` (stereo not shown) [Example 7, 3-(4-Benzyloxy-phenyl)-2-[2-(piperidine-1-carbonyl)-phenylamino]-propionic acid methyl ester], the “PPARg Fold. Act.” value in the series on PPARg (CAT reporter) is 5. As for `CN(CCOc1ccc(C[C@H](NC(=O)c2coc3ccccc3c2=O)C(=O)O)cc1)c1nc2ccccc2o1` [Example 28, 3-{4-[2-(Benzoxazol-2-yl-methyl-amino)-ethoxy]-phenyl}-2(S)-[(4-oxo-4H-chromene-3-carbonyl)-amino]-propionic acid], the EC50 with PPARg (setting [1]) is 25 nM. On to `CCN(CCOc1ccc(C[C@H](Nc2ccccc2C(=O)OC)C(=O)O)cc1)c1cccc(C)c1` [Example 71], for which the EC50 in the series on PPARg (setting [1]) was determined as 150 nM.
